According to patent US20200115698A1, “PHARMACEUTICAL COMBINATION FOR TREATMENT OF FABRY DISEASE AND USE THEREOF” (MEIJI PHARMACEUTICAL UNIVERSITY, priority 2017, published 2020):

How the values were obtained:
[1] = system: cultivated fibroblast derived from a Fabry disease model mouse; assay: Simultaneous addition of α-NAGA mutant and DGJ to cultivated fibroblast derived from Fabry disease model mouse; type: cell-based; settings: 1 μg/mL α-NAGA mutant plus 0-500 μM DGJ, 24 hours; FIG. 5
Procedure: A cultivated fibroblast derived from a Fabry disease model mouse was cultured at 37° C. under a 5% carbon dioxide environment with use of a DMEM medium to which a 10% fetal calf serum and an antibiotic substance had been added. First, concentration dependence of DGJ with respect to uptake efficiency of an α-NAGA mutant was analyzed. The cells were seeded to a 12-well plate at 1.0×10^5 cells/well. The medium was exchanged with an F-10 medium that contained 1 μg/mL of an α-NAGA mutant, any of concentrations (0, 1, 10, 100, and 500 μM) of DGJ, a 10% fetal calf serum, and an antibiotic substance, and cultivation was carried out for 24 hours. […] The homogenate thus obtained was subjected to centrifugal separation under conditions of 4° C. and 12,000 rpm, and the obtained supernatant liquid was used as samples for enzyme activity measurement, protein quantification, and Western blotting. […] Then, released 4-methylumbelliferone was measured at an excitation wavelength of 355 nm and at a fluorescence wavelength of 460 nm with use of Wallac 1420 ARVO MX Multilabel Counter (Perkin Elmer, Waltham, Mass.). Protein quantification was carried out with Micro BCA method (Micro BCA (trademark) Protein Assay Reagent Kit: Pierce) while using a concentration of bovine serum albumin (Albumin standard: Pierce Biotechnology, Inc., Rockford, Ill.) as a standard. […]

[2] = system: cultivated fibroblast derived from a patient of Fabry disease; assay: Simultaneous addition of α-NAGA mutant and DGJ to cultivated fibroblast derived from patient of Fabry disease; type: cell-based, human
Procedure: A cultivated fibroblast derived from a patient of Fabry disease was cultured at 37° C. under a 5% carbon dioxide environment with use of an F-10 medium to which a 10% fetal calf serum and an antibiotic substance had been added. First, concentration dependence of DGJ with respect to uptake efficiency of an α-NAGA mutant was analyzed. The cells were seeded to a 12-well plate at 1.0×10^5 cells/well. Then, the medium was exchanged with a medium containing 1 μg/mL of an α-NAGA mutant and any of concentrations (0, 1, 10, and 100 μM) of DGJ, and cultivation was carried out for 24 hours. The cells were cleaned three times with PBS, then treated with use of trypsin, and then collected. 20 mM MES (pH 6.0) containing Complete Mini (Roche) was added to the collected cells, and the cells were then subjected to an ultrasonic treatment. The homogenate thus obtained was subjected to centrifugal separation under conditions of 4° C. and 12,000 rpm, and the obtained supernatant liquid was used as samples for enzyme activity measurement, protein quantification, and Western blotting.
Next, in order to confirm time dependence, 1 μg/mL of an α-NAGA mutant and 10 μM of DGJ were added to the cells, and cultivation was carried out for 24 hours, 48 hours, and 72 hours. Then, enzyme activity measurement, protein quantification, and Western blotting were carried out. […]

## OCC1NCC(O)C(O)C1O [DGJ, (2R,3S,4R,5S)-2-(hydroxymethyl)piperdine-3,4,5-triol]
[1]
  α-NAGA mutant enzyme activity in cells: enzyme activity was improved
[2]; 1 μg/mL α-NAGA mutant plus 0-100 μM DGJ 24 hours, or 10 μM DGJ 24-72 hours, FIG. 6(a), 7(a)
  α-NAGA mutant enzyme activity in cells: enzyme activity was improved
[2]; simultaneous addition of DGJ versus no DGJ, FIG. 6(b), 7(b)
  amount of protein of the α-NAGA mutant taken in a cell (Western blotting): confirmed to be increased
